From PMC5623949, “Exploiting the 2-Amino-1,3,4-thiadiazole Scaffold To Inhibit Trypanosoma brucei Pteridine Reductase in Support of Early-Stage Drug Discovery” (ACS Omega, 2017) come the findings set out here.

Molecules are shown by their SMILES.

As a reminder, the inhibition is the change of the read-out against control, counted positive when it falls.

Sequence of CYP2D6 (P10635 whole entry, canonical isoform): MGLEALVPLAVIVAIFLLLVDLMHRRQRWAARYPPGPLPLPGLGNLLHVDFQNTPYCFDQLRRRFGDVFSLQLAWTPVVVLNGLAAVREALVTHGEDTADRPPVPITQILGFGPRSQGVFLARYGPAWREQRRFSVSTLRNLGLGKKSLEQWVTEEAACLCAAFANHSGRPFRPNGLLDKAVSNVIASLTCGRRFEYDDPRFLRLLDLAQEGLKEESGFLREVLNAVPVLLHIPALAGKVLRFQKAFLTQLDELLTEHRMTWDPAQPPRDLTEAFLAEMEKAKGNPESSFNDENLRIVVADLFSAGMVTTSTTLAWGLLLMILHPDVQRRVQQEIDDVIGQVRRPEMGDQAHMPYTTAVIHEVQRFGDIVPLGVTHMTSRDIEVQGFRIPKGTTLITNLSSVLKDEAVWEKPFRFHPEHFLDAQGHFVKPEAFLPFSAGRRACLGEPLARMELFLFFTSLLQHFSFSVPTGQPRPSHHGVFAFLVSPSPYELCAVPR
Sequence of CYP2C9 (P11712 whole entry, canonical isoform): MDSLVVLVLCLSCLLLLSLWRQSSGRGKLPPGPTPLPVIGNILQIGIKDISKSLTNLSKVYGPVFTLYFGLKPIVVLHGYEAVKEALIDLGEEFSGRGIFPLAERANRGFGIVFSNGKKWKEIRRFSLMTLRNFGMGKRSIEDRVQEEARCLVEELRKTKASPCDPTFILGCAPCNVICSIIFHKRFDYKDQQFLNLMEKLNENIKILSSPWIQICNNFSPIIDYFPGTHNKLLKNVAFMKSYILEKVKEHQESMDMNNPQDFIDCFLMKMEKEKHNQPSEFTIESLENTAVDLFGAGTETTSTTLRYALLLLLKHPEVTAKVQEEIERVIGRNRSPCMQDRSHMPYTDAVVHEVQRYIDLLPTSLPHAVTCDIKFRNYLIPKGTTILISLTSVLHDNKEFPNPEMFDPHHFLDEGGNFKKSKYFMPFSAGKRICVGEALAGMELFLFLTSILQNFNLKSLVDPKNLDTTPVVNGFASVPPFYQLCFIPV
T3 sequence (Q12809 whole entry): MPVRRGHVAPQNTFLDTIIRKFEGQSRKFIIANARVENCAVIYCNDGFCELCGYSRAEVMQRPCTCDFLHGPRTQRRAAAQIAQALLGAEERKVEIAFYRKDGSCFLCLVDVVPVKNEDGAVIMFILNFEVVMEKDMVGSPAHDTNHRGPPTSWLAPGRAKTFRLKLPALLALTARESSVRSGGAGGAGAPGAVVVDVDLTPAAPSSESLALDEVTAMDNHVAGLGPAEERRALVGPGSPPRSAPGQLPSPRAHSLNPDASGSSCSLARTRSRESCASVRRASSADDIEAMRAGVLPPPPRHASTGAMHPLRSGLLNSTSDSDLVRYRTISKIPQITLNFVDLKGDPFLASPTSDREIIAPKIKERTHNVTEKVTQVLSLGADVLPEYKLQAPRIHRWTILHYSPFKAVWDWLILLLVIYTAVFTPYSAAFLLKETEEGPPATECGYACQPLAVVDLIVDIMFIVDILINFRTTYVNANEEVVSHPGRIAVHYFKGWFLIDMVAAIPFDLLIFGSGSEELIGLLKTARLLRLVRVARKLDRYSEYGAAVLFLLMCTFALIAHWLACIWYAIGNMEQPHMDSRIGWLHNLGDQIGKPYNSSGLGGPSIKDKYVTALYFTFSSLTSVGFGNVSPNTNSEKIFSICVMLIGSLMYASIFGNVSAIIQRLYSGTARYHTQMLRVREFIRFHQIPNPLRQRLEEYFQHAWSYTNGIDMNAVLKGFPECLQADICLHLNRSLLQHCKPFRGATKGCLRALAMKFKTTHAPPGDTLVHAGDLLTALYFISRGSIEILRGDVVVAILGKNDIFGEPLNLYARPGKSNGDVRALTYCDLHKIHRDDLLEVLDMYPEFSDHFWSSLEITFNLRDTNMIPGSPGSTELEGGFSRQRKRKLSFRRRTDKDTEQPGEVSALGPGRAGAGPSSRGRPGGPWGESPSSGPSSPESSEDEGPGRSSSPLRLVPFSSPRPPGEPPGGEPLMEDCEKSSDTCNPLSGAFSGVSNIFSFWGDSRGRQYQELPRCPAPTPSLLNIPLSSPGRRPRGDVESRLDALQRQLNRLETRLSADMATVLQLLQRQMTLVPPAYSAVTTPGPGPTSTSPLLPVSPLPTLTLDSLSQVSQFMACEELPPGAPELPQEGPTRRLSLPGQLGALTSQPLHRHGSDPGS

Tested on in the first series: not listed separately
The series can be described thus: in vitro. The conditions noted are these: human, wi-38 cells; read-out: % cell growth W1-38 at 10uM. Set-up: cytotoxicity, per cent cell growth of WI-38 fibroblasts. The method, then: (§1) Independent of the effect of any antiparasitic potential of compounds, they were evaluated using a panel of early-toxicity assays comprising cytotoxicity (A549, human lung adenocarcinoma epithelial cell line and WI-38, human lung fibroblasts), mitochondrial toxicity (786-O, human renal carcinoma cell line), hERG inhibition,[31] cytochrome P450 inhibition (CYP1A2, CYP2C9, CYP2C19, CYP2D6, and CYP3A4),[31] and Aurora B kinase inhibition. […] For the two compounds active against TbPTR1 (4m and 4o), IC50 against hERG, cytochrome P450, and mitochondrial toxicity were determined (reported in Supporting Information). We observed that the dose of compounds 4m, 4o, 4c, and 3k was 4 μM in the potentiation assays. […] In the case of hERG, CYP2D6, CYP2A9, CYP2C19, and mitochondrial toxicity, there is a selectivity index of around 3–4 fold, thus showing an acceptable profile.  Figure 10 Summary heat map of the in vitro assays to determine possible liability issues for all synthesized compounds. Assays were performed to assess inhibition of hERG and five CYP isoforms (1A2, 2C9, 2C19, 2D6, and 3A4), growth inhibition of A549 and W1-38 cell lines, and mitochondrial toxicity at 10 μM. The hDHFR inhibition was determined at 100 μM. The data, expressed as percentage values, were organized by adopting a color code for rapid and intuitive visualization. The ideal compound should have all tiles blue, indicating a safe toxicological profile for progressing into the development pipeline. The cells are colored from blue (100% of cell growth at the tested concentration) to red (0% of cell growth at the tested concentration) for A549 and W1-38 and from blue (0% of inhibitory activity at the tested concentration) to red (100% of inhibitory activity at the tested concentration) for CYP isoforms, hERG, hDHFR, and mitochondrial toxicity.
As to `COc1ccc(CNc2nnc(N)s2)cc1OC` [4j], the viability at 10 µM was found to be 129 ± 57.4%.
Still for that read-out and setting: the result for `COc1cc(CNc2nnc(N)s2)cc(OC)c1OC` [4k] reads 71.2 ± 3.6%; that for `Nc1nnc(NCc2ccccc2Cl)s1` [4d], 55.4 ± 2.4%; that for `Nc1nnc(NCc2ccccc2)s1` [4b], 124 ± 19%.
On the same count and under the same terms, in the case of `Nc1nnc(-c2ccco2)s1` [1s] it was 138 ± 9.8%.

The next series deals with 786-O. The experiment in a line: cells. The following applies: Homo sapiens, 786-0; mitochondrial toxicity. Set-up: mitochondrial toxicity in 786-O renal carcinoma cells. The protocol:
as §1
On to `COc1ccc(CNc2nnc(N)s2)cc1OC` [4j], for which the inhibition at 10 µM was -8.3 ± 4.5%.
The same measure, in the same setting: in the case of `COc1cc(CNc2nnc(N)s2)cc(OC)c1OC` [4k] it was -1.9 ± 14.9%; in that of `Nc1nnc(NCc2ccccc2Cl)s1` [4d], -1.6 ± 9.3%.
`Nc1nnc(NCc2ccccc2)s1` [4b]: the inhibition at 10 µM amounted to 9 ± 14.8%.
The same measure, in the same setting: the result for `Nc1nnc(-c2ccco2)s1` [1s] reads 1.9 ± 4.8%.

Another series has as its system T. b. brucei Lister 427 bloodstream forms. The experiment in a line: In vitro activity against T. brucei (HTS SYBR Green I growth inhibition assay). The conditions noted are these: Trypanosoma brucei, 50 μM; standard deviation within ±10% of the value; read-out: % Inhibition T. brucei at 50 μM. Type of series: cell-based, Trypanosoma brucei brucei.
On to `COc1ccc(CNc2nnc(N)s2)cc1OC` [4j], for which the inhibition at 50 µM stood at 45.1%.
The same measure, in the same setting: in the case of `COc1cc(CNc2nnc(N)s2)cc(OC)c1OC` [4k] it was < 0%; in that of `Nc1nnc(NCc2ccccc2Cl)s1` [4d], < 0%.
As for `Nc1nnc(NCc2ccccc2)s1` [4b], the inhibition at 50 µM is < 0%.
The same measure, in the same setting: in the case of `Nc1nnc(-c2ccco2)s1` [1s] it was < 0%.

Tested on in another series: not listed separately
The series can be described thus: in vitro. Further details: cytotoxicity, per cent cell growth of A549 cells. The conditions noted are these: human, a549 cells; read-out: % cell growth A549 at 10uM. The protocol:
as §1
Regarding `COc1ccc(CNc2nnc(N)s2)cc1OC` [4j], the viability at 10 µM was 118 ± 3.9%.
On the same count and under the same terms, the result for `COc1cc(CNc2nnc(N)s2)cc(OC)c1OC` [4k] reads 116 ± 3.8%; that for `Nc1nnc(NCc2ccccc2Cl)s1` [4d], 115 ± 8.9%.
As for `Nc1nnc(NCc2ccccc2)s1` [4b], the viability at 10 µM is 104 ± 9.3%.
For the molecule `Nc1nnc(-c2ccco2)s1` [1s], the viability at 10 µM worked out at 132 ± 9.6%.

In a further series the target is T1, TbPTR1 (Trypanosoma brucei brucei, UniProt O76290).
T1 construct: made in house
T1 sequence (O76290 1-268): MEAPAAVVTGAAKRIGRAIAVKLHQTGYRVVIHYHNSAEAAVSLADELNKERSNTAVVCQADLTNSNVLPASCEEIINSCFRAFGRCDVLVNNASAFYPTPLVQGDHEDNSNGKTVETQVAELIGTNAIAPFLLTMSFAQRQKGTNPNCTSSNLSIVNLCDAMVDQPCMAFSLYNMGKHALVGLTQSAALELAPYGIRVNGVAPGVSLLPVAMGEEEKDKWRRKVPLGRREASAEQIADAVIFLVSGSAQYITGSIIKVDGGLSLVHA
The series can be described thus: biochemical. The following applies: 50 μM compound; read-out: % Inhibition TbPTR1 at 50 μM.
With `COc1ccc(CNc2nnc(N)s2)cc1OC` [4j], the inhibition at 50 µM came to 8.4 ± 1.2%.
Take `COc1cc(CNc2nnc(N)s2)cc(OC)c1OC` [4k]: the inhibition at 50 µM was < 0%.
Same read-out and setting: in the case of `Nc1nnc(NCc2ccccc2Cl)s1` [4d] it was 21.8 ± 2.2%; in that of `Nc1nnc(NCc2ccccc2)s1` [4b], 39.5 ± 0.9%; in that of `Nc1nnc(-c2ccco2)s1` [1s], 9 ± 0.8%.

Another series has as its target CYP2C9 (Homo sapiens, UniProt P11712). The series can be described thus: in vitro. Further details: cytochrome P450 isoform inhibition liability assay.
Conditions: not given
The protocol:
as §1
In the case of `COc1ccc(CNc2nnc(N)s2)cc1OC` [4j], the inhibition at 10 µM was 26.2 ± 1.3%.
Consider `COc1cc(CNc2nnc(N)s2)cc(OC)c1OC` [4k], for which the inhibition at 10 µM was 20.2 ± 2.5%.
As to `Nc1nnc(NCc2ccccc2Cl)s1` [4d], the inhibition at 10 µM was 13.9 ± 3.5%.
The same measure, in the same setting: in the case of `Nc1nnc(NCc2ccccc2)s1` [4b] it was -14.7 ± 3.3%.
Still for that read-out and setting: the result for `Nc1nnc(-c2ccco2)s1` [1s] reads -9 ± 3.5%.

For the next series, the target named is T2, CYP1A2 (Homo sapiens, UniProt P05177).
T2 sequence (P05177 1-516): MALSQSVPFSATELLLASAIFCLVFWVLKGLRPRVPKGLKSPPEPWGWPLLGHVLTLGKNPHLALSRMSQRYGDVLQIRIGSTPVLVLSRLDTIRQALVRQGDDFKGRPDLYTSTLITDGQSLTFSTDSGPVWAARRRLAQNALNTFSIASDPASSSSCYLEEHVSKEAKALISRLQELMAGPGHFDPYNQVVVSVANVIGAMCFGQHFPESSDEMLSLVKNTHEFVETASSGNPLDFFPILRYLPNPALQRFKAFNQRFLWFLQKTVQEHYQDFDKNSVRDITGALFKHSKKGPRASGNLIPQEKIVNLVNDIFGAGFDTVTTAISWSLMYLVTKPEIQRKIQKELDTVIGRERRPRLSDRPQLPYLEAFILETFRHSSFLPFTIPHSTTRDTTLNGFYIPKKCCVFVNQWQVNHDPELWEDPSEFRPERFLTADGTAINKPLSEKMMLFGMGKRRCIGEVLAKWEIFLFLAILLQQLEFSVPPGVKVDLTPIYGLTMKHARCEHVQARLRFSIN
The series can be described thus: in vitro. Further details: cytochrome P450 isoform inhibition liability assay.
Conditions: not given
The protocol:
as §1
Turning to `COc1ccc(CNc2nnc(N)s2)cc1OC` [4j], the inhibition at 10 µM came to 23.9 ± 4.8%.
On to `COc1cc(CNc2nnc(N)s2)cc(OC)c1OC` [4k], for which the inhibition at 10 µM worked out at 22.3 ± 4.1%.
On to `Nc1nnc(NCc2ccccc2Cl)s1` [4d], for which the inhibition at 10 µM is 28.2 ± 1.2%.
The same measure, in the same setting: in the case of `Nc1nnc(NCc2ccccc2)s1` [4b] it was -17.2 ± 3.6%; in that of `Nc1nnc(-c2ccco2)s1` [1s], 0.3 ± 4.9%.

The target in the next series is CYP2C19 (Homo sapiens, UniProt P33261). The series can be described thus: in vitro. Further details: cytochrome P450 isoform inhibition liability assay.
Sequence of CYP2C19 (P33261 whole entry, canonical isoform): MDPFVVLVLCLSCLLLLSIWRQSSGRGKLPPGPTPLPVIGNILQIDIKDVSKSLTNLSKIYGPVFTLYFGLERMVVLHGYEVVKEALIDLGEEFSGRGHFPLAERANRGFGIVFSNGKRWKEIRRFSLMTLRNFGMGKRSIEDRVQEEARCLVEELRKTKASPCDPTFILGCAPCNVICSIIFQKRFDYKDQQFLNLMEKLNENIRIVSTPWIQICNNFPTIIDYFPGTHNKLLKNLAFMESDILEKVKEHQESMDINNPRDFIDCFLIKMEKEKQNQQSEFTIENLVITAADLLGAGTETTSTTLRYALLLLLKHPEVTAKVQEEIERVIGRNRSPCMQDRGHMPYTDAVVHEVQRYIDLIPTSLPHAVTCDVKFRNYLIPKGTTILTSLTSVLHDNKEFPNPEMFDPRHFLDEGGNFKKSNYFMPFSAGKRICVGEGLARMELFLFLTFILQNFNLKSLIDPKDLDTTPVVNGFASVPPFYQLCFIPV
Conditions: not given
The protocol: as §1
For the molecule `COc1ccc(CNc2nnc(N)s2)cc1OC` [4j], the inhibition at 10 µM is 5.7 ± 7.4%.
On the same count and under the same terms, the result for `COc1cc(CNc2nnc(N)s2)cc(OC)c1OC` [4k] reads 0.2 ± 10.3%; that for `Nc1nnc(NCc2ccccc2Cl)s1` [4d], -13.3 ± 10.3%.
With `Nc1nnc(NCc2ccccc2)s1` [4b], the inhibition at 10 µM is -32.1 ± 5.7%.
Turning to `Nc1nnc(-c2ccco2)s1` [1s], the inhibition at 10 µM was -10.4 ± 22.5%.

The target in another series is CYP3A4 (Homo sapiens, UniProt P08684). The experiment in a line: in vitro. Further details: cytochrome P450 isoform inhibition liability assay.
Sequence of CYP3A4 (P08684 whole entry, canonical isoform): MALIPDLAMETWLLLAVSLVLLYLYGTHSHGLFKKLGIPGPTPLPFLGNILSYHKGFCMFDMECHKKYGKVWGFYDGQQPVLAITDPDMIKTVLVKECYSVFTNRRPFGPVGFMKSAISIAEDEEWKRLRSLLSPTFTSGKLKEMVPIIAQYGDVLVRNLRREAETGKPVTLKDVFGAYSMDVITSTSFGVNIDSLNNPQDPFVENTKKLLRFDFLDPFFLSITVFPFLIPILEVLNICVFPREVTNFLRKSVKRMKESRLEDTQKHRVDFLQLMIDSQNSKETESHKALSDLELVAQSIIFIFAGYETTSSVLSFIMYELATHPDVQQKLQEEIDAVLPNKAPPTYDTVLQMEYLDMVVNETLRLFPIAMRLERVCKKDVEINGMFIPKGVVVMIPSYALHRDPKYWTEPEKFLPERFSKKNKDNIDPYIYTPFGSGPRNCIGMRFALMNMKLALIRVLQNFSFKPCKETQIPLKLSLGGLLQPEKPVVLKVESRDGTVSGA
Conditions: not given
The protocol: as §1
On to `COc1ccc(CNc2nnc(N)s2)cc1OC` [4j], for which the inhibition at 10 µM was found to be 18.6 ± 4.2%.
The same measure, in the same setting: the result for `COc1cc(CNc2nnc(N)s2)cc(OC)c1OC` [4k] reads 11.4 ± 3.6%; that for `Nc1nnc(NCc2ccccc2Cl)s1` [4d], 10.1 ± 10.7%.
The same measure, in the same setting: the result for `Nc1nnc(NCc2ccccc2)s1` [4b] reads -9.5 ± 6.2%.
Still for that read-out and setting: in the case of `Nc1nnc(-c2ccco2)s1` [1s] it was -14.9 ± 9.7%.

Another series addresses CYP2D6 (Homo sapiens, UniProt P10635). The experiment in a line: in vitro. Set-up: cytochrome P450 isoform inhibition liability assay.
Conditions: not given
The protocol:
as §1
In the case of `COc1ccc(CNc2nnc(N)s2)cc1OC` [4j], the inhibition at 10 µM amounted to 36.5 ± 4.4%.
Consider `COc1cc(CNc2nnc(N)s2)cc(OC)c1OC` [4k], for which the inhibition at 10 µM turned out to be 23.6 ± 2.4%.
Same read-out and setting: the result for `Nc1nnc(NCc2ccccc2Cl)s1` [4d] reads 90.3 ± 0.9%; that for `Nc1nnc(NCc2ccccc2)s1` [4b], -32.7 ± 6.7%.
Same read-out and setting: in the case of `Nc1nnc(-c2ccco2)s1` [1s] it was -47.6 ± 4.7%.

A further series concerns the target T3, hERG (Homo sapiens, UniProt Q12809).
T3 construct: gene KCNH2
Experiment: not given
Set-up: hERG inhibition liability assay.
Conditions: not given
The protocol: as §1
With `COc1ccc(CNc2nnc(N)s2)cc1OC` [4j], the inhibition at 10 µM came to 35.7 ± 7.1%.
Consider `COc1cc(CNc2nnc(N)s2)cc(OC)c1OC` [4k], for which the inhibition at 10 µM came out at 21.3 ± 27.9%.
The same measure, in the same setting: in the case of `Nc1nnc(NCc2ccccc2Cl)s1` [4d] it was 15.2 ± 3.6%; in that of `Nc1nnc(NCc2ccccc2)s1` [4b], 1.8 ± 1.3%; in that of `Nc1nnc(-c2ccco2)s1` [1s], -3.8 ± 3.2%.
